Assays:
Assay type in all cases: cell-based
U373M = assay: MTT assay for 7-day toxicity, U373M glioma cells (stably transfected with MGMT, MGMT+); details: Glioma cell, 168 h, 7 day MTT assay, glioma line U373M
Method: (§1) The cell culture techniques were carried out in a Class II microbiological safety cabinet which was swabbed with 70% IMS in distilled water before each use. Glioma cells were routinely cultured in Costar tissue culture flasks in RPMI 1640 liquid medium (containing 0.3 g/L L-glutamine and 2 g/L sodium bicarbonate) supplemented with 10% heat inactivated FBS (55-59° C.) for 1 hour to denature complement proteins which would otherwise evoke a cellular immune response resulting in cell lysis, 1% non-essential amino acids, 50 μg/mL gentamicin and 400 μg/mL G418 (vector selection reagent). Colorectal and melanoma cells were maintained in RPMI 1640 supplemented with 10% FBS. MRC-5 cells were cultured in EMEM+10% FBS, 1% pen/strep, 1% non-essential amino acids, 1% HEPES (1M) and 1% sodium bicarbonate.
(§2) Cells were grown at 37° C. in a humidified incubator in an atmosphere comprising 95% air/5% CO2. Cells were sub-cultured when growth exceeded approximately 80% confluence, normally twice weekly. The medium was aspirated from the flask and approximately 0.8 mL trypsin-EDTA 1× solution added. The cells were re-incubated at 37° C. until they had visibly detached from the flask. The cells were re-suspended in 5 mL medium and 0.5-1 mL was transferred to a new flask (25 cm^2) with 7 mL culture medium. The cells were further incubated at 37° C. To minimize phenotypic drift, cells were disposed of once they had been subcultured 30 times. New batches of cells were thawed rapidly in 37° C. water bath once taken from liquid nitrogen storage and re-suspended in 10 mL of culture medium in a 25 cm^2 flask. Cells were passaged twice to allow normal growth to resume prior to use in experiments.
(§3) Most test compounds, including temozolomide, were prepared as 100 mM stock solutions in DMSO and stored at −20° C. for not more than 6 months.
(§4) MTT Assay for 7-Day Toxicity Assay
(§5) This assay was first described in Mosmann, T., 1983, “Rapid colorimetric assay for cellular growth and survival: Application to proliferation and cytotoxicity assays”, Journal of Immunological Methods, Vol. 65, Nos. 1-2, pp. 55-63.
(§6) Glioma cell lines, SNB19 and U373, both stably transfected with MGMT (i.e., SNB19M and U373M) or their respective vector controls (i.e., SNB19V and U373V); colorectal carcinoma cell lines, HCT116, HT29, and DLD1; melanoma cell line, SKMEL-28; breast cell line, MCF-7; and normal human fetal lung fibroblast cell line, MRC-5; were used at 60-80% confluence, during the logarithmic phase of growth.
(§7) Following harvesting with trypsin/EDTA, cells in suspension were gently syringed through a 23 gauge needle to obtain a near-single cell suspension. Cells were then seeded into 96-well plates at the desired density in 180 μL culture medium if only one test compound was to be added, or in 160 μL if two test compounds were to be added in combination. Cells were allowed to attach overnight by incubation at 37° C. in 95% air/5% CO2. For the 7 day assay, the cell seeding densities for the different cell lines were as follows: SNB19V, SNB19M: 650 cells/well; U373V, U373M: 650 cells/well; SNB19VR, U373VR: 650 cells/well; HCT116, DLD-1, SKMEL-28, MRC-5, MCF-7: 400 cells/well.
(§8) The two peripheral lanes of each plate were used as blank wells (cell free) and filled with 200 μL of medium in order to minimise medium evaporation from the plate. A separate time zero (T0) plate was set up alongside other plates. Serial dilutions in tissue culture medium of a 100 mM stock of test compound were prepared immediately before each assay to ten times the final concentrations required. 20 μL was added to each well (200 μL total media per well) to achieve final concentrations of 0.5 μM, 1 μM, 5 μM, 10 μM, 50 μM, 100 μM, 500 μM, and 1000 μM. A minimum of four wells received the same test compound concentration. To control wells, including those in the T0 plate, 20 μL of medium was added. […]

U373V = assay: MTT assay for 7-day toxicity, U373V glioma cells (vector control, MGMT-); details: Glioma cell, 168 h, 7 day MTT assay, glioma line U373V
Method: as §1, §2, §3, §4, §5, §6, §7, §8

SNB19V = assay: MTT assay for 7-day toxicity, SNB19V glioma cells (vector control, MGMT-); details: Glioma cell, 168 h, 7 day MTT assay, glioma line SNB19V
Method: as §1, §2, §3, §4, §5, §6, §7, §8

SNB19M = assay: MTT assay for 7-day toxicity, SNB19M glioma cells (stably transfected with MGMT, MGMT+); details: Glioma cell, 168 h, 7 day MTT assay, glioma line SNB19M
Method: as §1, §2, §3, §4, §5, §6, §7, §8

| Compound | GI50 (U373M) | GI50 (U373V) | GI50 (SNB19V) | GI50 (SNB19M) |
| --- | --- | --- | --- | --- |
| C#CCn1nnc2c(-c3nc4ccccc4o3)ncn2c1=O [WW-055, 8-(Benzo[d]oxazol-2-yl)-3-(prop-2-ynyl)imidazo[5,1-d][1,2,3,5]tetrazin-4(3H)-one] | < 60 µM | < 75 µM | < 45 µM | < 70 µM |
| C#CCn1nnc2c(-c3nc(-c4ccsc4)cs3)ncn2c1=O [WW-024, 3-(Prop-2-ynyl)-8-(4-(thiophen-3-yl)thiazol-2-yl)imidazo[5,1-d][1,2,3,5]tetrazin-4(3H)-one] | < 60 µM | < 75 µM | < 45 µM | < 70 µM |
| C#CCn1nnc2c(-c3nc(-c4cccs4)cs3)ncn2c1=O [WW-029, 3-(Prop-2-ynyl)-8-(4-(thiophen-2-yl)thiazol-2-yl)imidazo[5,1-d][1,2,3,5]tetrazin-4(3H)-one] | < 60 µM | < 75 µM | < 45 µM | < 70 µM |
| C#CCn1nnc2c(-c3nc(-c4cccc(Cl)c4)cs3)ncn2c1=O [WW-023, 8-(4-(3-Chlorophenyl)thiazol-2-yl)-3-(prop-2-ynyl)imidazo[5,1-d][1,2,3,5]tetrazin-4(3H)-one] | < 60 µM | < 75 µM | < 45 µM | < 70 µM |
| Cn1nnc2c(-c3nc4ccccc4[nH]3)ncn2c1=O [WW-062, 8-(1H-Benzo[d]imidazol-2-yl)-3-methylimidazo[5,1-d][1,2,3,5]tetrazin-4(3H)-one] | < 60 µM | < 75 µM | < 45 µM | < 70 µM |
| C[S+]([O-])Cn1nnc2c(-c3nc(-c4cccs4)cs3)ncn2c1=O (stereo not shown) [WW-036, 3-(methylsulfinylmethyl)-8-(4-(thiophen-2-yl)thiazol-2-yl)imidazo[5,1-d][1,2,3,5]tetrazin-4(3H)-one] | < 60 µM | < 75 µM | < 45 µM | < 70 µM |
| C#CCn1nnc2c(-c3nc(-c4ccccc4)c[nH]3)ncn2c1=O [WW-050, 8-(4-Phenyl-1H-imidazol-2-yl)-3-(prop-2-ynyl)imidazo[5,1-d][1,2,3,5]tetrazin-4(3H)-one] | < 60 µM | < 75 µM | < 45 µM | < 70 µM |
| Cn1cc(-c2ccccc2)nc1-c1ncn2c(=O)n(C)nnc12 [WW-051, 3-Methyl-8-(1-methyl-4-phenyl-1H-imidazol-2-yl)imidazo[5,1-d][1,2,3,5]tetrazin-4(3H)-one] | < 60 µM | < 75 µM | < 45 µM | < 70 µM |
| Cn1nnc2c(-c3ncc[nH]3)ncn2c1=O [WW-047, 8-(1H-Imidazol-2-yl)-3-methylimidazo[5,1-d][1,2,3,5]tetrazin-4(3H)-one] | < 60 µM | < 75 µM | < 45 µM | < 70 µM |
| C#CCn1nnc2c(-c3nc(-c4ccc5c(c4)OCO5)cs3)ncn2c1=O [WW-026] | < 60 µM | < 75 µM | < 45 µM | < 70 µM |
| C#CCn1nnc2c(C(=N)NCC(=O)OC)ncn2c1=O [SS-001, Methyl-2-(4-oxo-3-(prop-2-ynyl)-3,4-dihydroimidazo[5,1-d][1,2,3,5]tetrazine-8-carboximidamido)acetate hydroiodide] | 55.1 µM | 51.2 µM | 59 µM | 52.7 µM |
| Cn1nnc2c(-c3nc(C#N)cs3)ncn2c1=O [WW-006, 2-(3-Methyl-4-oxo-3,4-dihydroimidazo[5,1-d][1,2,3,5]tetrazin-8-yl)thiazole-4-carbonitrile] | < 60 µM | < 75 µM | < 45 µM | – |
| C#CCn1nnc2c(C(N)=S)ncn2c1=O [TT-001, 4-oxo-3-(prop-2-ynyl)-3,4-dihydroimidazo[5,1-d][1,2,3,5]tetrazine-8-carbothioamide] | 53.4 µM | 42.3 µM | 63.2 µM | 54.7 µM |
| C#CCNC(=O)c1csc(-c2ncn3c(=O)n(C)nnc23)n1 [WW-005, 2-(3-Methyl-4-oxo-3,4-dihydroimidazo[5,1-d][1,2,3,5]tetrazin-8-yl)-N-(prop-2-ynyl)thiazole-4-carboxamide] | < 60 µM | < 75 µM | < 45 µM | < 70 µM |
| COCn1nnc2c(/C=C/c3ccc(C#N)cc3)ncn2c1=O [MM-001, (E)-4-(2-(3-(Methoxymethyl)-4-oxo-3,4-dihydroimidazo[5,1-d][1,2,3,5]tetrazin-8-yl)vinyl)benzonitrile] | 8.8 µM | 7.7 µM | 9.1 µM | 8.9 µM |
| C#CCn1nnc2c(-c3nc(-c4ccc(S(C)(=O)=O)cc4)cs3)ncn2c1=O [WW-025] | < 60 µM | < 75 µM | < 45 µM | < 70 µM |
| Cn1nnc2c(-c3nc(C(=O)NC4CC4)cs3)ncn2c1=O [WW-008, N-Cyclopropyl-2-(3-methyl-4-oxo-3,4-dihydroimidazo[5,1-d][1,2,3, 5]tetrazin-8-yl)thiazole-4-carboxamide] | < 60 µM | < 75 µM | < 45 µM | < 70 µM |
| Cn1nnc2c(-c3ncc(-c4ccccc4)o3)ncn2c1=O [WW-038, 3-Methyl-8-(5-phenyloxazol-2-yl)imidazo[5,1-d][1,2,3,5]tetrazin-4(3H)-one] | < 60 µM | < 75 µM | < 45 µM | < 70 µM |
| CCc1csc(-c2ncn3c(=O)n(C)nnc23)n1 [WW-003, 8-(4-Ethylthiazol-2-yl)-3-methylimidazo[5,1-d][1,2,3,5]tetrazin-4(3H)-one] | < 60 µM | < 75 µM | < 45 µM | < 70 µM |
| Cn1nnc2c(-c3nc(C(N)=O)cs3)ncn2c1=O [WW-007, 2-(3-Methyl-4-oxo-3,4-dihydroimidazo[5,1-d][1,2,3, 5]tetrazin-8-yl)thiazole-4-carboxamide] | < 60 µM | < 75 µM | < 45 µM | < 70 µM |
| C#CCn1nnc2c(-c3ncc(-c4ccccc4)o3)ncn2c1=O [WW-040] | < 60 µM | < 75 µM | – | < 70 µM |
| Cn1nnc2c(-c3nc(C(=O)NC(C)(C)C)cs3)ncn2c1=O [WW-009, N-tert-Butyl-2-(3-methyl-4-oxo-3,4-dihydroimidazo[5,1-d][1,2,3,5]tetrazin-8-yl)thiazole-4-carboxamide] | < 60 µM | < 75 µM | < 45 µM | – |
| COCn1nnc2c(-c3nc(-c4ccccc4)cs3)ncn2c1=O [WW-016, 3-(Methoxymethyl)-8-(4-phenylthiazol-2-yl)imidazo[5,1-d][1,2,3,5]tetrazin-4(3H)-one] | < 60 µM | < 75 µM | – | < 70 µM |
| COCn1nnc2c(-c3nc(-c4ccc5c(c4)OCO5)cs3)ncn2c1=O [WW-032] | < 60 µM | < 75 µM | – | < 70 µM |
| COCn1nnc2c(-c3ncc(-c4ccc(Br)cc4)o3)ncn2c1=O [WW-039] | < 60 µM | < 75 µM | – | < 70 µM |
| COCn1nnc2c(-c3nc(C(C)(C)C)cs3)ncn2c1=O [WW-014, 8-(4-tert-Butylthiazol-2-yl)-3-(methoxymethyl)imidazo[5,1-d][1,2,3,5]tetrazin-4(3H)-one] | < 60 µM | < 75 µM | – | < 70 µM |

Reference: patent publication US9024018B2, “3-substituted-8-substituted-3H-imidazo[5,1-d][1,2,3,5]tetrazin-4-one compounds and their use” (Pharminox Limited, priority 2009, dated 2015)
